From US20230364084A1, “METHODS FOR PREVENTING OR TREATING CONDITIONS RELATED TO PIKFYVE ACTIVITY” (The Regents of the University of Michigan, priority 2020, published 2023)

Legend:
[1] = test system: VCaP 3D spheroids; experiment: 3D spheroid culture; format: cell-based, human; conditions: VCaP 3D spheroid culture, compared with cabozantinib
Protocol: Nuclear red fluorescent protein-expressing VCaP cells were seeded in ultralow attachment 96-well plates and spun down at 1000 rpm for 10 minutes to pellet cells. Spheroids were formed after 3 days of incubation in a cell culture incubator, and then treatment was started. Red fluorescence intensity was monitored by IncuCyte ZOOM.

[2] = test system: DU145 tumors; experiment: DU145 xenograft tumor model; format: in vivo, mouse; conditions: 30 mg/kg
Protocol: Four- to six-week old male CB17 severe combined immunodeficiency (SCID) mice were procured from the University of Michigan breeding colony. Subcutaneous tumors were established at both sides of the dorsal flank of mice. Tumors were measured at least biweekly using digital calipers following the formula (π/6) (L×W2), where L=length and W=width of the tumor. At the end of the studies, mice were sacrificed and tumors extracted and weighed. The University of Michigan University Committee on the Use and Care of Animals (UCUCA) approved all in vivo studies. For the VCaP castration-resistant tumor model, 3×10^6 VCaP cells were injected subcutaneously into the dorsal flank on both sides of the mice in serum-free medium with 50% Matrigel (BD Biosciences). Once tumors reached a palpable stage (˜200 mm^3), tumor-bearing mice were castrated. Once tumors grew back to the pre-castration size, mice were randomized and treated with either 30 mg/kg, 60 mg/kg ESK981, or vehicle (ORA-PLUS) by oral gavage 5 days per week. For the DU145 xenograft tumor model, 1×10^6 DU145 cells were injected subcutaneously into the dorsal flank on both sides of the mice in serum-free medium with 50% Matrigel. When tumors reached ˜100 mm^3, tumor-bearing mice were randomized and treated with 30 mg/kg ESK981 or vehicle (ORA-PLUS) by oral gavage 5 days per week.

[3] = toxicity evaluation in mice (body weight, serum chemistry, organ histology); format: in vivo, mouse
Protocol: To determine whether ESK981-mediated growth inhibition translated into anti-tumor effects, the efficacy of ESK981 in blocking prostate cancer growth in mouse xenograft models was assessed. VCaP cells were chosen for initial experiments because this cell line harbors the TMPRSS2:ERG gene fusion and AR amplification, both of which are frequent molecular aberrations in patients with advanced CRPC^29. A castration-resistant VCaP tumor-bearing xenograft mouse model was generated to mimic disease progression in human patients (FIG. 3a).
Whole blood was collected using BD Microtainer SST tubes, and serum was isolated by centrifugation at 7000 rpm for 10 minutes. Sera were submitted to the University of Michigan ULAM Pathology Cores for Animal Research for liver and renal chemistry analysis.

[4] = test system: LAMP1 in DU145 cells; experiment: LAMP1 immunofluorescence; format: cell-based, human; conditions: 300 nM, 24 hours
Protocol: For LAMP1 immunofluorescence, cells were seeded on coverslips overnight and treated with ESK981 at 300 nM for 24 hours. Coverslips were fixed with 10% paraformaldehyde and permeabilized with 10% saponin. Coverslips were then blocked with 10% goat serum and stained with LAMP1 antibody (Cat No. 9091, Cell Signaling Technology) and fluorescently-labelled secondary antibody. Confocal images were taken using a Nikon A1 confocal microscope.

[5] = test system: PC3 and DU145 cells; experiment: autophagic flux detection (GFP-LC3-RFP-LC3ΔG probe); format: cell-based, human; conditions: PC3 or DU145 cells, 24 hours
Protocol: For autophagic flux detection, 10,000 cells were plated in 96-well plates and incubated with various compounds in complete medium for 24 hours. GFP and RFP fluorescence intensities were measured on a TECAN M1000 plate reader.

[6] = test system: VCaP cells; experiment: untargeted lipidomic analysis; format: cell-based, human; conditions: 300 nM, 6 and 24 hours
Protocol: Details of sample preparation and identification for untargeted lipidomic profiling have been previously reported^68. The lipids were extracted using a modified Bligh-Dyer method^69. The extraction was carried out using a 2:2:2 volume ratio of water:methanol:dichloromethane at room temperature after spiking internal standard lipids (17:0LPC, 17:0PC, 17:0PE, 17:0PG, 17:0 ceramide, 17:0SM, 17:0PS, 17:0PA, 17:0TG, 17:0MG, d5-DG, d31-TG, and 17.0-20.4 PI). The organic layer was collected and dried completely under nitrogen. The organic dried extract containing lipids was further analyzed by LC-MS-based lipidomics. The dried lipid extracts were injected onto a 1.8-μm particle 50×2.1 mm id Waters Acquity HSS T3 column (Waters, Milford, MA), which was heated to 55° C. […] As controls (QC) to monitor the profiling process, a pool of plasma and test plasma (a small aliquot from all test samples) were extracted and analyzed in tandem with the experimental samples. These controls were incorporated multiple times into the randomization scheme such that sample preparation and analytical variability could be constantly monitored. […] Identified lipids were quantified by normalizing against their respective internal standard. […] The QC samples were mainly used to remove technical outliers and lipid species that were detected below the lipid class-based lower limit of quantification.

[7] = target: PIKfyve (Homo sapiens, UniProt Q9Y2I7); experiment: cellular thermal shift assay; format: cell-based; parameters: endogenous in cells; host or cells: VCaP cells; conditions: VCaP cells, 1 μM, 2 hours
Chain of PIKfyve (Q9Y2I7 whole entry): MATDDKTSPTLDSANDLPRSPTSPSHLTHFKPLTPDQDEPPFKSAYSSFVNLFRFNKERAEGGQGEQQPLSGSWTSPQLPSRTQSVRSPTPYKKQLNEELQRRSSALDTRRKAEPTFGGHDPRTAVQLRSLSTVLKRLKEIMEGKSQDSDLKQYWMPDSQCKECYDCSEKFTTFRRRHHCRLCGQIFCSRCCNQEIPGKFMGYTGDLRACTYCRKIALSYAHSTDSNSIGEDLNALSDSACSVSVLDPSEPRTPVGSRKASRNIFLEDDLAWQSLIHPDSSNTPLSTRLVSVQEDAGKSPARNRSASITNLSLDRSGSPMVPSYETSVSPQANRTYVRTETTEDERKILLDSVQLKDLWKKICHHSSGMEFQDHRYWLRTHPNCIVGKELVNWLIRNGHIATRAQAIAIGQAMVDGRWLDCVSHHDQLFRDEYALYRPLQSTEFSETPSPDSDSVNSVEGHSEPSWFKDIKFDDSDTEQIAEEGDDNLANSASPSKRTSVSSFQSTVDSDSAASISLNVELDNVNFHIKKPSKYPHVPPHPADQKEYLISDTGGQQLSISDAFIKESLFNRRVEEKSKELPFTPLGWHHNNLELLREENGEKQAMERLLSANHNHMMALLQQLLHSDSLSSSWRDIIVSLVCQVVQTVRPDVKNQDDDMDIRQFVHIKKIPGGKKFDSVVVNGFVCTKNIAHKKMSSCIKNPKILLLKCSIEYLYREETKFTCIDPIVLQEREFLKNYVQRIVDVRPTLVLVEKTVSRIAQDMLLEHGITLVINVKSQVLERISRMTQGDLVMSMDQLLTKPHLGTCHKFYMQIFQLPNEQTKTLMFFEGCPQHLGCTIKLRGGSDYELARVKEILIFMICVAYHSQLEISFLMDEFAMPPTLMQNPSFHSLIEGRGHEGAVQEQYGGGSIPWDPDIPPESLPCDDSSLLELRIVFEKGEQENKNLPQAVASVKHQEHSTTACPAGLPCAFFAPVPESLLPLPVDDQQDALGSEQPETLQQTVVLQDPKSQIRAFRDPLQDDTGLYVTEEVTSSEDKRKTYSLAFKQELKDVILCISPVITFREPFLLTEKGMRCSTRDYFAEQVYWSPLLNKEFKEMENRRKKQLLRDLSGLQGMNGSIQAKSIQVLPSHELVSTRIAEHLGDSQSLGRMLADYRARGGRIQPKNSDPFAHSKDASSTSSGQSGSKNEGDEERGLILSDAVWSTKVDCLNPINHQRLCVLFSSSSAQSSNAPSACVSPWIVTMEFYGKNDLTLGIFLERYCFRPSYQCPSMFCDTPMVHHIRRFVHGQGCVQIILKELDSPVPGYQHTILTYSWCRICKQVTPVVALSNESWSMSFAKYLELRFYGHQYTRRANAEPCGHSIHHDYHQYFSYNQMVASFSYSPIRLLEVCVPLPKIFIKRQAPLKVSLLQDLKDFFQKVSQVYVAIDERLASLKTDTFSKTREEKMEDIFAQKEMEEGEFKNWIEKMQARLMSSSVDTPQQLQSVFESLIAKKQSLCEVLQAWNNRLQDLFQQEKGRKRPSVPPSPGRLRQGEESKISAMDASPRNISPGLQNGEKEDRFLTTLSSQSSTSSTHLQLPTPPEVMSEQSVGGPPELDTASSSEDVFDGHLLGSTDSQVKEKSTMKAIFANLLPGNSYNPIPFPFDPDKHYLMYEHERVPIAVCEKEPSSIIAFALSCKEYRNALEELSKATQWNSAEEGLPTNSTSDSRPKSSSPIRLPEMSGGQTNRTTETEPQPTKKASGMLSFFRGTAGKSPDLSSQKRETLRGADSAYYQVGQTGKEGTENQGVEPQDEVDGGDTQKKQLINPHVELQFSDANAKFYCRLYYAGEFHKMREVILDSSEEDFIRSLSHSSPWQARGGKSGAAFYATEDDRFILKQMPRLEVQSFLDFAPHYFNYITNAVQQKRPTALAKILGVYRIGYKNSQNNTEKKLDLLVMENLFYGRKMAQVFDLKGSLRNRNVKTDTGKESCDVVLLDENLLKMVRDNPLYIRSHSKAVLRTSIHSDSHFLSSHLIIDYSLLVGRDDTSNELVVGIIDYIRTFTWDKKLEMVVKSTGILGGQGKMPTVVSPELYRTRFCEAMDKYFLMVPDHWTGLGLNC
Protocol: The ability of compounds to interact with, and thereby stabilize the target in intact cells, was analyzed essentially as previously described^60,61. The target engagement of ESK981 to PIKfyve was performed in VCaP cells. Cells were treated with DMSO, ESK981 (1 μM), or apilimod (1 μM) for 2 hours at 37° C. and 5% CO2, and 1×10^6 single cell suspensions were diluted into 50 μl of PBS containing protease inhibitor. Cell suspensions were then incubated in a PCR thermal cycler at various temperatures for 2 cycles of 3 minutes heating followed by 3 minutes cooling at room temperature. Cells were lysed by three cycles of freeze-thawing using liquid nitrogen. 20 μl of the soluble fraction of cell lysates were analyzed by western blot.

SMILES: CC(C)Cn1c2ccc(Nc3ncccn3)cc2c2c3c(c4c(c21)CCc1nn(C)cc1-4)C(=O)NC3 [ESK981, 13-isobutyl-4-methyl-10-(pyrimidin-2-ylamino)-1,2,4,7,8,13-hexahydro-6H-indazolo[5,4-a]pyrrolo[3,4-c]carbazol-6-one]
- inhibitory effect on 3D spheroids [1]: more robust inhibitory effect at relatively lower concentrations than cabozantinib
- tumor weights [2]: significant decreases in tumor weights
- tumor growth ([2]; oral gavage 5 days per week, SCID mice): Significant inhibition of tumor growth
- tissue vacuolization in major organs ([3]; H&E staining of organs of ESK981-treated mice): no major organs were found to have the same tissue vacuolization morphology
- body weight loss ([3]; VCaP tumor-bearing mice): within the range of tolerance
- tolerability in mice ([3]; body weight, liver and kidney serum chemistry, histology of major organs): well-tolerated
- LAMP1 staining of ESK981-induced vacuoles [4]: positive for the lysosomal marker LAMP1
- autophagic flux (GFP/RFP ratio) [5]: low autophagic flux
- major lipid changed [6]: phosphatidylethanolamine (PE) was the major lipid increased
- cellular target engagement on PIKfyve [7]: confirmed
